Source: patent publication US5910499A, “Antiallergic agent having an anti-oxidant action” (LTT Institute Co., Ltd., priority 1997, dated 1999)

How the values were obtained:
rat liver microsome = assay: ADP/Fe^3+ induced lipid peroxidation reaction using rat liver microsome (anti-oxidant action); type: biochemical; settings: for inhibition action on lipid peroxidation compared with BHT: versus BHT, positive control (FIG. 1)
Protocol: Test Example 1 [Anti-oxidant-action (lipid peroxide production inhibiting action)]
Compounds II-VII represented by the following formulae [drawing 3] have shown concentration dependent inhibition action on ADP/Fe^3+ induced lipid peroxidation reaction using rat liver microsome.
Test method (ADP/Fe^3+ induced lipid peroxidation reaction)
The method of Kiso et al. was employed. That means, 100 μl of a rat liver microsome suspension (20 mg of protein/ml), 100 μl of a 2 mM NADPH, 100 μl of a 10 mM ADP, and 100 μl of a specimen solution whose concentration was controlled with a 10% N,N-dimethylformamide (DMF) aqueous solution were added to 500 μl of a trihydroxymethylaminomethane (Tris)-HCl buffer solution (167 mM KCl, 74.4 mM Tris, pH 7.4) and heated at 37° C. for 5 minutes. Then 100 μl of 100 μM FeCl3 was added thereto and heated at 37° C. for 20 minutes
To a control was added 100 μl of a 10% DMF aqueous solution instead of the specimen solution. To a blank, 100 μl of a 10% DMF aqueous solution was added instead of the specimen solution, and 300 μl of water was added instead of 100 μl of the NADPH, 100 μl of the FeCl3, and 100 μl of the ADP. The reaction was stopped by cooling with ice, and the amount of the lipid peroxide was calculated as an amount of malondialdehyde according to the method of Ohkawa et al.
That means, 200 μl of a 8.1% sodium dodecyl sulfate (SDS) aqueous solution, 1.5 ml of an acetic acid buffer solution (20% AcOH containing 0.27M HCl was controlled with 10M NaOH to have a pH of 3.5), and 1.5 ml of a 0.8% 2-thiobarbituric acid aqueous solution were added to 1 ml of the reaction mixture and heated in a boiling water bath for 20 minutes Following heating, the reaction was stopped with cooling with ice and 4 ml of n-BuOH-pyridine mixed solution (15:1) was added thereto and mixed vigorously. Then the mixture was subjected to centrifugation at 800×g for 10 minutes and the absorbancy of the supernatant liquid was measured at 532 nm.

[1] = system: rat cutaneous anaphylactic reaction (PCA reaction); assay: Antiallergic action in an orally administered rat, 48 hours homologous PCA reaction; type: in vivo; settings: Wistar male rat, oral, 2 hours before antigen; versus tranilast (FIG. 2)
Protocol: Test Example 4--Antiallergic action in an orally administered rat (PCA method)
The antiallergic actions of Compound II-Compound VII were evaluated using rat cutaneous anaphylactic reaction (PCA reaction) employing tranilast, which is an oral antiallergic agent, as a positive control compound.
Test method (Antiallergic action by PCA reaction)
The test was carried out according to the method of Koda et al, {Int. Arch. Allergy Appl. Immunol. 87, 254(1988)}. The dorsum of a Wistar-strain male rat having a body weight of about 200 g was shaved and 0.1 ml of an antiserum showing 48 hours homologous PCA strength of 1:128-1:256 diluted with physiological saline was injected into the dorsum intracutaneously. […] After 30 minutes, the rat was brought to death by exsanguination and the pigment freckle generated on the back skin was cut out and the amount of the transuded pigment was determined. That means, the cut out skin was put in a test tube, 1 ml of 1N KOH was added and allowed to stand overnight at 37° C. to elute the pigment, and 9 ml of a mixture comprising acetone and 0.6N phosphoric acid (mixed at 13:5) was added thereto and shaken, and the insoluble substances were removed by filtration and the absorbency of the filtrate was measured at 620 nm and the amount of the pigment was determined. […]

5-lipoxygenase = molecular target: T1, 5-lipoxygenase (Rattus norvegicus, UniProt P12527); assay: 5-lipoxygenase inhibiting action (leucotriene production inhibiting action), RBL-1 cell homogenate; type: biochemical; settings: arachidonic acid, 37° C., 5-HETE by HPLC
T1 construct: subjected to supersonic treatment and the cells were disrupted; endogenous in cells; host or cells: RBL-1 cells (homogenate)
T1 sequence (P12527 1-673): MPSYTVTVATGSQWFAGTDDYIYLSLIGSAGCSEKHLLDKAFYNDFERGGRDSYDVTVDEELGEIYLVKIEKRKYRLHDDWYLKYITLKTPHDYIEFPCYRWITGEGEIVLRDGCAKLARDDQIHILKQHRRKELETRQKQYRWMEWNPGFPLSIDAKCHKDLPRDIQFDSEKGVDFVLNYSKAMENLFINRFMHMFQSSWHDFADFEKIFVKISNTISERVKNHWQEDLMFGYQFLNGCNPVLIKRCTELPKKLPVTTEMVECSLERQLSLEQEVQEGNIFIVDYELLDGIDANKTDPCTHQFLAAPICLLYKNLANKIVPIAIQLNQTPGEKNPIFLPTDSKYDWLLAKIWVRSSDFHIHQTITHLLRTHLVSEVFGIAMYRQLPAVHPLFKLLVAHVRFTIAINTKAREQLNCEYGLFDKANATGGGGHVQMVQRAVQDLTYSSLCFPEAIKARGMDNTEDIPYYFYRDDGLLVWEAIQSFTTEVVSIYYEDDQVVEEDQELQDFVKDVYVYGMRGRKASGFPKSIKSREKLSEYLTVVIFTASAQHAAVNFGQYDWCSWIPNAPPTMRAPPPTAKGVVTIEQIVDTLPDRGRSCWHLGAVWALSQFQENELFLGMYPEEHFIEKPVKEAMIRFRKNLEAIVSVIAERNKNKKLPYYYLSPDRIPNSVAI
Protocol: Test method (5-lipoxygenase inhibition action)
That means, a RBL-1 cell suspension which was adjusted with a 50 mM phosphate buffer such that the number of cells became 1×10^7 cells/ml, was subjected to supersonic treatment and the cells were disrupted To 500 μl of the cell homogenate solution was added 10 μl of a specimen solution whose concentration was adjusted to different concentrations using a 1% DMSO, 10 μl of 100 mM CaCl2 and 10 μl of a 10 mg/ml arachidonic acid solution in MeOH and heated to 37° C. for 3 minutes. To a control was added 10 μl of a 1% DMSO instead of the specimen. To a blank, 10 μl of a 1% DMSO was added instead of the specimen, and 500 μl of a 50 mM phosphate buffer was added instead of RBL-1 cell suspension. Then 500 μl of MeOH was added thereto and the mixture was cooled with ice to stop the reaction, followed by mixing and centrifugation at 2000×g for 15 minutes Then the amount of 5-HETE in 10 μl of the supernatant liquid was measured using HPLC under the following conditions.
mobile phase; acetonitrile: 0.1% acetic acid=85:15
detection wave length; 235 nm
The inhibition ratio to 5-lipoxygenase activity was calculated according to the following formula.

guinea pig bowel = molecular target: T2, guinea pig bowel (Cavia porcellus, UniProt P31389); assay: Antihistaminic action with guinea pig bowel by Magnus' method; settings: guinea pig ileum, histamine dose reaction curve, 37° C.; read-out: pA2 (index of the antihistaminic action) (converted)
T2 construct: the ileum was excised to a length of about 2 cm; from tissue; host or cells: guinea pig ileum
Protocol: Test Example 3--Antihistaminic action
The antihistaminic action of the Compound V was tested with a guinea pig bowel by Magnus' method using diphenhydramine hydrochloride as a positive control.
A guinea pig which had been fasted overnight was struck to death and the ileum was excised to a length of about 2 cm and one end was suspended in an isotonic transducer and the other end was secured onto a fixed rod. The temperature of the temperature controlled bath was kept at 37° C. and the ileum was allowed to stand for about 30 minutes while a mixed gas comprising 95% of O2 and 5% of CO2 was introduced into 10 ml of Tyrode solution, and histamine of different concentrations was injected for training, then a dose reaction curve was obtained by administering histamine accumulatively in order of increasing concentration. Then after washing, a dose reaction curve in relation to the histamine was similarly obtained under administration of the specimen and pA2 was calculated.

T2 sequence (P31389 whole entry): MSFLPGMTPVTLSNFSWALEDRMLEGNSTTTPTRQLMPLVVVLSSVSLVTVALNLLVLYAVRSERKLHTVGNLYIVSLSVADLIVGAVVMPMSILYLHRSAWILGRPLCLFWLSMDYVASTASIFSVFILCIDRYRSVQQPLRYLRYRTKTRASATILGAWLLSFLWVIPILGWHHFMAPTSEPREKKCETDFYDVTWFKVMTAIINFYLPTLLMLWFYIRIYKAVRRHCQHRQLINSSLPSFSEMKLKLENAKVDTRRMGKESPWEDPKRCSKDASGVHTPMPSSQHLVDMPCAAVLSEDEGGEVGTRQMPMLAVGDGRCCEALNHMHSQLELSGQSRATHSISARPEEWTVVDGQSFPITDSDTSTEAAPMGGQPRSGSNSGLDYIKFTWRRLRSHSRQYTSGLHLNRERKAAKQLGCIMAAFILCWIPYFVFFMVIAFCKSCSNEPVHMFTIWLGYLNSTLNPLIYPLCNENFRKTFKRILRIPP

IC50 (5-lipoxygenase) [µM] | Kb (guinea pig bowel) [µM] | SMILES | inhibition action on lipid peroxidation compared with BHT (rat liver microsome) | anti-oxidant action, ranking among the compounds of Test Example 1 (rat liver microsome; result in words) | antiallergic activity compared with the positive control compound (tranilast) [1]
– | – | Cc1cc(OCCN2CCN(C(c3ccccc3)c3ccccc3)CC2)c(C)c(C)c1O [Compound II] | higher inhibition actions than BHT | – | –
6.2 | 0.126 | Cc1cc(OCCCCCCN2CCN(C(c3ccccc3)c3ccccc3)CC2)c(C)c(C)c1O [Compound V] | higher inhibition actions than BHT | highest anti-oxidant action | higher activity than that of the positive control compound
– | – | Cc1cc(OCCCCN2CCN(C(c3ccccc3)c3ccccc3)CC2)c(C)c(C)c1O [Compound IV] | higher inhibition actions than BHT | – | higher activity than that of the positive control compound
– | – | Cc1cc(OCCCN2CCN(C(c3ccccc3)c3ccccc3)CC2)c(C)c(C)c1O [Compound III] | higher inhibition actions than BHT | – | –
